# Test results from PubChem BioAssay (NCI).
#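 Step 1: Grow cells in 96-well plates. Step 2: Expose to compound for 48 hours at 5 concentrations. Step 3: Interpolate endpoints linearly; if unreached, use highest concentration. GI50 marks 50% less growth. At the TGI there is no net growth.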
# How the values were obtained:
# Test in all cases: growth of human tumour cells (NCI), 48 h
# [1] = tested on: 786-0 renal
# [2] = tested on: A498 renal
# [3] = tested on: A549 NSCLC
# [4] = tested on: ACHN renal
# [5] = tested on: CAKI-1 renal
# [6] = tested on: CCRF-CEM leukemia
# [7] = tested on: COLO 205 colon
# [8] = tested on: DU-145 prostate
# [9] = tested on: EKVX NSCLC
# [10] = tested on: HCC-2998 colon
# [11] = tested on: HCT-116 colon
# [12] = tested on: HCT-15 colon
# [13] = tested on: HL-60(TB) leukemia
# [14] = tested on: HOP-62 NSCLC
# [15] = tested on: HOP-92 NSCLC
# [16] = tested on: HS 578T breast
# [17] = tested on: HT29 colon
# [18] = tested on: IGROV1 ovarian
# [19] = tested on: K-562 leukemia
# [20] = tested on: KM12 colon
# [21] = tested on: LOX IMVI melanoma
# [22] = tested on: M14 melanoma
# [23] = tested on: MALME-3M melanoma
# [24] = tested on: MCF7 breast
# [25] = tested on: MDA-MB-231 breast
# [26] = tested on: MDA-MB-435
# [27] = tested on: MOLT-4 leukemia
# [28] = tested on: NCI-H226 lung
# [29] = tested on: NCI-H23 lung
# [30] = tested on: NCI-H460 lung
# [31] = tested on: NCI-H522 lung
# [32] = tested on: NCI/ADR-RES ovarian
# [33] = tested on: OVCAR-3 ovarian
# [34] = tested on: OVCAR-4 ovarian
# [35] = tested on: OVCAR-5 ovarian
# [36] = tested on: OVCAR-8 ovarian
# [37] = tested on: PC-3 prostate
# [38] = tested on: RPMI-8226 leukemia
# [39] = tested on: RXF 393 renal
# [40] = tested on: SF-268 CNS
# [41] = tested on: SF-295 CNS
# [42] = tested on: SF-539 CNS
# [43] = tested on: SK-MEL-2 melanoma
# [44] = tested on: SK-MEL-28 melanoma
# [45] = tested on: SK-MEL-5 melanoma
# [46] = tested on: SN12C renal
# [47] = tested on: SNB-19 CNS
# [48] = tested on: SNB-75 CNS
# [49] = tested on: SR leukemia
# [50] = tested on: SW-620 colon
# [51] = tested on: T-47D breast
# [52] = tested on: TK-10 renal
# [53] = tested on: U251 CNS
# [54] = tested on: UACC-257 melanoma
# [55] = tested on: UACC-62 melanoma
# [56] = tested on: UO-31 renal
# [57] = tested on: BT-549 breast
# [58] = tested on: SK-OV-3 ovarian
compound,measurement,setting,value
CC(C)(C)C1=NN=C2c3ccccc3C(=O)C21 (centres undefined),TGI,[1],> 100 µM
same,TGI,[2],99.5 µM
same,TGI,[3],> 100 µM
same,TGI,[4],> 100 µM
same,TGI,[5],> 100 µM
same,TGI,[6],> 100 µM
same,TGI,[7],> 100 µM
same,TGI,[8],> 100 µM
same,TGI,[9],> 100 µM
same,TGI,[10],> 100 µM
same,TGI,[11],> 100 µM
same,TGI,[12],> 100 µM
same,TGI,[13],> 100 µM
same,TGI,[14],> 100 µM
same,TGI,[15],63.7 µM
same,TGI,[16],82.1 µM
same,TGI,[17],> 100 µM
same,TGI,[18],> 100 µM
same,TGI,[19],> 100 µM
same,TGI,[20],> 100 µM
same,TGI,[21],> 100 µM
same,TGI,[22],> 100 µM
same,TGI,[23],> 100 µM
same,TGI,[24],> 100 µM
same,TGI,[25],> 100 µM
same,TGI,[26],> 100 µM
same,TGI,[27],85 µM
same,TGI,[28],> 100 µM
same,TGI,[29],> 100 µM
same,TGI,[30],> 100 µM
same,TGI,[31],> 100 µM
same,TGI,[32],> 100 µM
same,TGI,[33],> 100 µM
same,TGI,[34],> 100 µM
same,TGI,[35],> 100 µM
same,TGI,[36],> 100 µM
same,TGI,[37],> 100 µM
same,TGI,[38],> 100 µM
same,TGI,[39],> 100 µM
same,TGI,[40],> 100 µM
same,TGI,[41],> 100 µM
same,TGI,[42],> 100 µM
same,TGI,[43],> 100 µM
same,TGI,[44],> 100 µM
same,TGI,[45],54.3 µM
same,TGI,[46],> 100 µM
same,TGI,[47],> 100 µM
same,TGI,[48],> 100 µM
same,TGI,[49],83 µM
same,TGI,[50],> 100 µM
same,TGI,[51],> 100 µM
same,TGI,[52],> 100 µM
same,TGI,[53],> 100 µM
same,TGI,[54],> 100 µM
same,TGI,[55],> 100 µM
same,TGI,[56],> 100 µM
O=C1/C(=C/c2cccc3ccccc23)Cc2ccccc21,TGI,[1],48.3 µM
same,TGI,[2],> 100 µM
same,TGI,[3],> 100 µM
same,TGI,[4],> 100 µM
same,TGI,[57],29.9 µM
same,TGI,[5],> 100 µM
same,TGI,[6],> 100 µM
same,TGI,[9],> 100 µM
same,TGI,[10],> 100 µM
same,TGI,[12],> 100 µM
same,TGI,[13],> 100 µM
same,TGI,[16],73.3 µM
same,TGI,[17],> 100 µM
same,TGI,[18],> 100 µM
same,TGI,[19],> 100 µM
same,TGI,[20],> 100 µM
same,TGI,[21],> 100 µM
same,TGI,[22],> 100 µM
same,TGI,[24],38.9 µM
same,TGI,[27],> 100 µM
same,TGI,[28],49.6 µM
same,TGI,[29],65.8 µM
same,TGI,[30],> 100 µM
same,TGI,[32],> 100 µM
same,TGI,[33],91.3 µM
same,TGI,[34],53 µM
same,TGI,[35],> 100 µM
same,TGI,[36],> 100 µM
same,TGI,[37],54.3 µM
same,TGI,[38],> 100 µM
same,TGI,[39],39.2 µM
same,TGI,[40],65.7 µM
same,TGI,[42],79.4 µM
same,TGI,[44],> 100 µM
same,TGI,[45],> 100 µM
same,TGI,[58],47.2 µM
same,TGI,[46],> 100 µM
same,TGI,[47],64 µM
same,TGI,[48],> 100 µM
same,TGI,[49],> 100 µM
same,TGI,[50],> 100 µM
same,TGI,[52],> 100 µM
same,TGI,[53],52 µM
same,TGI,[55],> 100 µM
same,TGI,[56],> 100 µM
Cc1ccc(C2CC(c3cccc(Nc4ccncc4)c3)=NN2c2ccc(Cl)cc2)cc1 (centres undefined),GI50,[1],1.71 µM
same,TGI,[1],3.16 µM
same,GI50,[2],1.38 µM
same,TGI,[2],2.7 µM
same,GI50,[3],1.73 µM
same,TGI,[3],3.29 µM
same,GI50,[4],1.63 µM
same,TGI,[4],2.99 µM
same,GI50,[57],1.81 µM
same,TGI,[57],3.4 µM
same,GI50,[5],1.51 µM
same,TGI,[5],2.97 µM
same,GI50,[6],2.64 µM
same,TGI,[6],7.66 µM
same,GI50,[7],1.73 µM
same,TGI,[7],3.6 µM
same,GI50,[8],1.8 µM
same,TGI,[8],3.21 µM
same,GI50,[9],1.48 µM
same,TGI,[9],2.88 µM
same,GI50,[10],1.69 µM
same,TGI,[10],3.14 µM
same,GI50,[11],1.84 µM
same,TGI,[11],3.71 µM
same,GI50,[12],1.83 µM
same,TGI,[12],3.43 µM
same,GI50,[13],1.92 µM
same,TGI,[13],4 µM
same,GI50,[15],1.38 µM
same,TGI,[15],2.74 µM
same,GI50,[17],1.86 µM
same,TGI,[17],3.9 µM
same,GI50,[18],1.72 µM
same,TGI,[18],3.24 µM
same,GI50,[19],1.84 µM
same,TGI,[19],4.46 µM
same,GI50,[20],1.62 µM
same,TGI,[20],2.99 µM
same,GI50,[21],1.62 µM
same,TGI,[21],2.97 µM
same,GI50,[22],1.73 µM
same,TGI,[22],3.39 µM
same,GI50,[23],1.6 µM
same,TGI,[23],3.05 µM
same,GI50,[24],1.8 µM
same,TGI,[24],3.86 µM
same,GI50,[25],1.41 µM
same,TGI,[25],2.78 µM
same,GI50,[26],1.6 µM
same,TGI,[26],2.97 µM
same,GI50,[27],1.85 µM
same,TGI,[27],4.12 µM
same,GI50,[28],1.87 µM
same,TGI,[28],3.76 µM
same,GI50,[29],1.77 µM
same,TGI,[29],3.39 µM
same,GI50,[30],1.72 µM
same,TGI,[30],3.34 µM
same,GI50,[31],1.78 µM
same,TGI,[31],3.67 µM
same,GI50,[32],1.87 µM
same,TGI,[32],3.88 µM
same,GI50,[33],1.69 µM
same,TGI,[33],3.06 µM
same,GI50,[34],1.69 µM
same,TGI,[34],3.35 µM
same,GI50,[35],1.61 µM
same,TGI,[35],2.99 µM
same,GI50,[37],1.59 µM
same,TGI,[37],3.08 µM
same,GI50,[39],1.59 µM
same,TGI,[39],2.97 µM
same,GI50,[41],1.79 µM
same,TGI,[41],3.19 µM
same,GI50,[42],1.74 µM
same,TGI,[42],3.14 µM
same,GI50,[44],1.83 µM
same,TGI,[44],3.32 µM
same,GI50,[45],1.76 µM
same,TGI,[45],3.16 µM
same,GI50,[58],1.65 µM
same,TGI,[58],3.17 µM
same,GI50,[46],1.66 µM
same,TGI,[46],3.13 µM
same,GI50,[48],1.36 µM
same,TGI,[48],2.87 µM
same,GI50,[49],1.52 µM
same,TGI,[49],3.52 µM
same,GI50,[50],1.55 µM
same,TGI,[50],3.04 µM
same,GI50,[52],1.78 µM
same,TGI,[52],3.35 µM
same,GI50,[53],1.85 µM
same,TGI,[53],3.64 µM
same,GI50,[55],1.72 µM
same,TGI,[55],3.14 µM
same,GI50,[56],1.35 µM
same,TGI,[56],2.63 µM
